Reference: patent US12415794B2 (Edgewise Therapeutics, Inc., priority 2018, dated 2025)

Key:
[1] = target: skeletal myofibrils (myosin ATPase); assay: Skeletal Myofibril ATPase Assay; format: biochemical
Outline: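 Skeletal myofibril ATPase measured by PK-LDH coupled NADH depletion, absorbance 340 nm read every 1.5-2 min over 45 min. Max−min rate normalized to 1% DMSO vehicle as 100%; IC50 from four-parameter logistic fit with bottom ≥0. Cardiac myofibrils used as counter-screen.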

[2] = target: T1, cardiac myofibrils (myosin ATPase); assay: Cardiac Myofibril ATPase Assay (counter screen); format: biochemical; conditions: myofibrils 1.0 mg/mL, KCl omitted
T1 construct: frozen myofibril pellets obtained from cardiac tissue; from tissue
T1 sequence (P12883 whole entry): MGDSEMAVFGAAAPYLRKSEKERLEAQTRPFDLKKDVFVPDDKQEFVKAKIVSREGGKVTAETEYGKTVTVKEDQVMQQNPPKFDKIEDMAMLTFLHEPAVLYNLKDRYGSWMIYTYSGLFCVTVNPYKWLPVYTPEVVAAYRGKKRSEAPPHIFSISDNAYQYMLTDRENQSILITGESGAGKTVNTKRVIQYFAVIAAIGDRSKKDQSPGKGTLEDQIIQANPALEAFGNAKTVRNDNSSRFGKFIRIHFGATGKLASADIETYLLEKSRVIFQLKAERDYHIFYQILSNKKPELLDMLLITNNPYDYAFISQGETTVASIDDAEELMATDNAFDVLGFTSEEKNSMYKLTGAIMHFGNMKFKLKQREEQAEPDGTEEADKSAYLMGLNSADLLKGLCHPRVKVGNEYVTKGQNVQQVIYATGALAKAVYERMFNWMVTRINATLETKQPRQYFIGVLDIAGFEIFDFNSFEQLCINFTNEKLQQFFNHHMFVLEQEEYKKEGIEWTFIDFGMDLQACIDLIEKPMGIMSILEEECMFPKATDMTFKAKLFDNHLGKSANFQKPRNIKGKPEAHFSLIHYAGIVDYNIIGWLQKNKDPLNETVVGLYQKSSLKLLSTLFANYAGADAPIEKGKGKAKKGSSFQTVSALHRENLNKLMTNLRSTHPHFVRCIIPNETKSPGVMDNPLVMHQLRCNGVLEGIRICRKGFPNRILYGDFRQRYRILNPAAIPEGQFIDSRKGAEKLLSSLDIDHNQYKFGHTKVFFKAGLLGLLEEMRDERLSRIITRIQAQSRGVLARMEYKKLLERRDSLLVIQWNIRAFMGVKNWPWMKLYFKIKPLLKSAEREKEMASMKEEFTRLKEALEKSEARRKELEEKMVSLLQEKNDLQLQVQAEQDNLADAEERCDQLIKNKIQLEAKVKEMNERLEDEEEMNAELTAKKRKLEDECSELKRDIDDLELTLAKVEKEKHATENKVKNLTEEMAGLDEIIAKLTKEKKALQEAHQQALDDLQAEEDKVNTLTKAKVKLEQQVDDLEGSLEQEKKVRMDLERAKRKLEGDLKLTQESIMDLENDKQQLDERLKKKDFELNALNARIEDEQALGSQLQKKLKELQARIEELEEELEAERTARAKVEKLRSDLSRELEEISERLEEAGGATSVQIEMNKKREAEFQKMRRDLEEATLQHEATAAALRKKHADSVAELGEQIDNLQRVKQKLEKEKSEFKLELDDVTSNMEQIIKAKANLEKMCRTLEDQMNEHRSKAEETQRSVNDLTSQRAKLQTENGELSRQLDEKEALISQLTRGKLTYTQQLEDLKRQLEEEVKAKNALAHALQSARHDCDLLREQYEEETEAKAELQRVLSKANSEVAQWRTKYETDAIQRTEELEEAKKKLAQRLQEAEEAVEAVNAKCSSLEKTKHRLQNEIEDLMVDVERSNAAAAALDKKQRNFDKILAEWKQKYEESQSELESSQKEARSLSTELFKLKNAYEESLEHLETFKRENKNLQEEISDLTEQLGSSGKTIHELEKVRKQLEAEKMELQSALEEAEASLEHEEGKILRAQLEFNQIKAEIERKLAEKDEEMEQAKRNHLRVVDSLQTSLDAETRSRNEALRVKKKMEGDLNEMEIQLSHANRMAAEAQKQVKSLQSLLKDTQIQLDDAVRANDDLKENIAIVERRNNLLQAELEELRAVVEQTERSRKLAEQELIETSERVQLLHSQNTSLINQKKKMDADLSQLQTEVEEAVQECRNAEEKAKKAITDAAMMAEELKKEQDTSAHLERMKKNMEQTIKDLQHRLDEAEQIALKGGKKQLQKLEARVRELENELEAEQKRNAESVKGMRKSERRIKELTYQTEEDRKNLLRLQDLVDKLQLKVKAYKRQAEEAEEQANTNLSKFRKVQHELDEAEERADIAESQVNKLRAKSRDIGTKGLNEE
T1 sequence (P08590 whole entry partner): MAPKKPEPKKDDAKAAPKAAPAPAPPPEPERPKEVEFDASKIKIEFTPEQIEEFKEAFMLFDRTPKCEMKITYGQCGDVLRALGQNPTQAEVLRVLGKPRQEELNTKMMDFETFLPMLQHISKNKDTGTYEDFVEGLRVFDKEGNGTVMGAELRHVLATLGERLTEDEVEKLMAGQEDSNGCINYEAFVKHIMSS
T1 sequence (P10916 whole entry partner): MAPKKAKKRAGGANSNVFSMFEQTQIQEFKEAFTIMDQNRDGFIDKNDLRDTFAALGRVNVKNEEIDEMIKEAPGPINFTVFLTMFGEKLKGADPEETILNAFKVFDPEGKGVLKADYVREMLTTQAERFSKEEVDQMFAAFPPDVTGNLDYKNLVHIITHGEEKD
Outline: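 Frozen cardiac myofibrils at 1.0 mg/mL final, KCl omitted, in a PK-LDH coupled ATPase assay; ADP production tracked as NADH loss by absorbance at 340 nm. Inhibition taken as reduced rate relative to vehicle controls, with IC50 derived.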

| IC50 ([1]; Table 4A) [µM] | IC50 ([2]; Table 5A) [µM] | IC50 ([1]; Table 4C) [µM] | IC50 ([2]; Table 5C) [µM] | Compound | further results |
| --- | --- | --- | --- | --- | --- |
| > 100 | > 100 | – | – | Cn1nccc1CNC(=O)Cn1nc(-c2ccc(OC(F)F)nc2)ccc1=O [Compound I-30, 2-(3-(6-(difluoromethoxy)pyridin-3-yl)-6-oxopyridazin-1(6H)-yl)-N-((1-methyl-1H-pyrazol-5-yl)methyl)acetamide] | – |
| 10 to 100 | > 100 | – | – | CCNC(=O)Cn1nc(-c2ccc(OCC(F)(F)F)nc2)ccc1=O [Compound I-13, N-ethyl-2-(6-oxo-3-(6-(2,2,2-trifluoroethoxy)pyridin-3-yl)pyridazin-1(6H)-yl)acetamide] | – |
| 10 to 100 | > 100 | – | – | CCNC(=O)Cn1nc(-c2ccc(OCCC(F)(F)F)nc2)ccc1=O [Compound I-10, N-ethyl-2-(6-oxo-3-(6-(3,3,3-trifluoropropoxy)pyridin-3-yl)pyridazin-1(6H)-yl)acetamide] | – |
| 10 to 100 | > 100 | – | – | CCNC(=O)Cn1nc(-c2ccc(NC34CC(CO)(C3)C4)nc2)ccc1=O [Compound I-58, N-ethyl-2-(3-(6-((3-(hydroxymethyl)bicyclo[1.1.1]pentan-1-yl)amino)pyridin-3-yl)-6-oxopyridazin-1(6H)-yl)acetamide] | – |
| < 10 | > 100 | – | – | CCNC(=O)Cn1nc(-c2cnc(Nc3ccc(F)cc3)nc2)ccc1=O [Compound I-2, N-ethyl-2-(3-(2-((4-fluorophenyl)amino)pyrimidin-5-yl)-6-oxopyridazin-1(6H)-yl)acetamide] | – |
| < 10 | > 100 | – | – | O=C(Cn1nc(-c2ccc(NC3CCC3)nc2)ccc1=O)NC1CCC1 [Compound I-52, N-cyclobutyl-2-(3-(6-(cyclobutylamino)pyridin-3-yl)-6-oxopyridazin-1(6H)-yl)acetamide] | – |
| 10 to 100 | > 100 | – | – | CCNC(=O)Cn1nc(-c2cnc(OCC3CC(F)(F)C3)nc2)ccc1=O [Compound I-77, 2-(3-(2-((3,3-difluorocyclobutyl)methoxy)pyrimidin-5-yl)-6-oxopyridazin-1(6H)-yl)-N-ethylacetamide] | – |
| 10 to 100 | > 100 | – | – | CCNC(=O)Cn1nc(-c2ccc(OCC3(C)COC3)nc2)ccc1=O [Compound I-24, N-ethyl-2-(3-(6-((3-methyloxetan-3-yl)methoxy)pyridin-3-yl)-6-oxopyridazin-1(6H)-yl)acetamide] | – |
| < 10 | > 100 | – | – | O=C(Cn1nc(-c2cnc(NC34CC(C3)C4)nc2)ccc1=O)NC1CCC1 [Compound I-50, 2-(3-(2-(bicyclo[1.1.1]pentan-1-ylamino)pyrimidin-5-yl)-6-oxopyridazin-1(6H)-yl)-N-cyclobutyl-acetamide] | – |
| > 100 | > 100 | – | – | O=C(Cn1nc(-c2ccc(OC(F)F)nc2)ccc1=O)NC1CC(F)(F)C1 [Compound I-33] | – |
| < 10 | > 100 | – | – | CCNC(=O)Cn1nc(-c2cnc(NC34CC(F)(C3)C4)nc2)ccc1=O [Compound I-57, N-ethyl-2-(3-(2-((3-fluorobicyclo[1.1.1]pentan-1-yl)amino)pyrimidin-5-yl)-6-oxopyridazin-1(6H)-yl)acetamide] | – |

Continued, compound first:

| Compound | IC50 ([1]; Table 4A) [µM] | IC50 ([2]; Table 5A) [µM] | IC50 ([1]; Table 4C) [µM] | IC50 ([2]; Table 5C) [µM] | further results |
| --- | --- | --- | --- | --- | --- |
| O=C(Cn1nc(-c2ccc(OCC(F)(F)F)cc2)ccc1=O)N1CCC1c1ccccc1 (stereo not shown) [II-23, 2-(2-oxo-2-(2-phenylazetidin-1-yl)ethyl)-6-(4-(2,2,2-trifluoroethoxy)phenyl)pyridazin-3(2H)-one] | – | – | – | – | IC50 ([1]; Table 4B): < 10 µM; IC50 ([2]; Table 5B): > 100 µM |
| CC(C)(C)NC(=O)Cn1nc(-c2ccc(OC(F)F)cc2)ccc1=O [II-16, N-(tert-butyl)-2-(3-(4-(difluoromethoxy)phenyl)-6-oxopyridazin-1(6H)-yl)acetamide] | – | – | – | – | IC50 ([1]; Table 4B): 10 to 100 µM; IC50 ([2]; Table 5B): > 100 µM |
| CC(C)OCCCNC(=O)Cn1nc(-c2ccc(Cl)cc2)ccc1=O [IIIc-33, 2-(3-(4-chlorophenyl)-6-oxopyridazin-1(6H)-yl)-N-(3-isopropoxypropyl)acetamide] | – | – | 10 to 100 | > 100 | – |
| COc1ccc(-c2ccc(=O)n(CC(=O)NCc3ccc(Cl)cc3)n2)cc1 [IIIa-17, N-(4-chlorobenzyl)-2-(3-(4-methoxyphenyl)-6-oxopyridazin-1(6H)-yl)acetamide] | – | – | < 10 | > 100 | – |
| COc1ccc(-c2ccc(=O)n(CC(=O)NCc3ccccn3)n2)cc1 [IIIa-30, 2-(3-(4-methoxyphenyl)-6-oxopyridazin-1(6H)-yl)-N-(pyridin-2-ylmethyl) acetamide] | – | – | > 100 | > 100 | – |
| CCNC(=O)Cn1nc(-c2ccc(C3CC3)cc2)ccc1=O [IIIa-19] | – | – | < 10 | > 100 | – |
| O=C(Cn1nc(-c2ccc(OCC(F)(F)F)cc2)ccc1=O)NCc1ccc(CO)cc1 [II-24, N-(4-(hydroxymethyl)benzyl)-2-(6-oxo-3-(4-(2,2,2-trifluoroethoxy)phenyl)pyridazin-1(6H)-yl)acetamide] | – | – | – | – | IC50 ([1]; Table 4B): > 100 µM; IC50 ([2]; Table 5B): > 100 µM |
| COc1ccc(-c2ccc(=O)n(CC(=O)Nc3ccc4c(c3)OCO4)n2)cc1 [IIIb-28, N-(benzo[d][1,3]dioxol-5-yl)-2-(3-(4-methoxyphenyl)-6-oxopyridazin-1(6H)-yl)acetamide] | – | – | 10 to 100 | > 100 | – |
| O=C(Cn1nc(-c2ccccc2)ccc1=O)Nc1ccc(Cl)cc1Cl [IIIc-54, N-(2,4-dichlorophenyl)-2-(6-oxo-3-phenylpyridazin-1(6H)-yl)acetamide] | – | – | 10 to 100 | > 100 | – |
| COc1ccc(-c2ccc(=O)n(CC(=O)N(C)c3ccccc3)n2)cc1 [IIIc-7, 2-(3-(4-methoxyphenyl)-6-oxopyridazin-1(6H)-yl)-N-methyl-N-phenylacetamide] | – | – | 10 to 100 | > 100 | – |
| COc1ccc(-c2ccc(=O)n(CC(=O)NCC3CCCCC3)n2)cc1 [IIIa-4] | – | – | < 10 | > 100 | – |
| CC(CCNC(=O)Cn1nc(-c2ccccc2)ccc1=O)c1ccccc1 (stereo not shown) [IIIc-53, 2-(6-oxo-3-phenylpyridazin-1(6H)-yl)-N-(3-phenylbutyl)acetamide] | – | – | 10 to 100 | > 100 | – |
| COc1ccc(-c2ccc(=O)n(CC(=O)NCc3ccc(C)cc3)n2)cc1 [IIIa-15, 2-(3-(4-methoxyphenyl)-6-oxopyridazin-1(6H)-yl)-N-(4-methylbenzyl) acetamide] | – | – | < 10 | > 100 | – |
| COc1ccc(-c2ccc(=O)n(CC(=O)NCCc3ccccc3)n2)cc1 [IIIa-5, 2-(3-(4-methoxyphenyl)-6-oxopyridazin-1(6H)-yl)-N-phenethylacetamide] | – | – | < 10 | > 100 | – |
| O=C(Cn1nc(-c2ccccc2)ccc1=O)Nc1ccc2c(c1)OCCO2 [IIIc-64, N-(2,3-dihydrobenzo[b][1,4]dioxin-6-yl)-2-(6-oxo-3-phenylpyridazin-1(6H)-yl)acetamide] | – | – | > 100 | > 100 | – |
| COc1ccc(-c2ccc(=O)n(CC(=O)NC3CC3)n2)c(F)c1 [IIIb-58, N-cyclopropyl-2-(3-(2-fluoro-4-methoxyphenyl)-6-oxopyridazin-1(6H)-yl)acetamide] | – | – | > 100 | > 100 | – |
| CN(Cc1ccccc1)C(=O)Cn1nc(-c2ccc(Cl)cc2)ccc1=O [IIIc-32, N-benzyl-2-(3-(4-chlorophenyl)-6-oxopyridazin-1(6H)-yl)-N-methylacetamide] | – | – | 10 to 100 | > 100 | – |
| O=C(Cn1nc(-c2ccc(Cl)cc2)ccc1=O)Nc1ccccc1Cl [IIIc-38, N-(2-chlorophenyl)-2-(3-(4-chlorophenyl)-6-oxopyridazin-1(6H)-yl)acetamide] | – | – | < 10 | > 100 | – |
